Values of other authors in patent US20240252671A1, “NEODEGRADER-ANTI-CD33 ANTIBODY CONJUGATES” (priority 2021, published 2024).

Columns and labels:
AML-193 = conditions: stated as known; cited from earlier work
Kasumi-6 = conditions: stated as known; cited from earlier work

In the case of “Mylotarg: a CD33-targeting ADC clinically approved for the treatment of AML”, the “sensitivity of cell line to Mylotarg” value (AML-193) is given as “insensitive” and the “sensitivity of cell line to Mylotarg” value (Kasumi-6) is given as “insensitive”.
